Read-outs that look alike come from different tables or passages of the source.
Key:
[1] = biological target: human HDAC8 (Homo sapiens (Human), UniProt Q9BY41); assay: HDAC8 inhibition assay (modified FLUOR DE LYS, 384-well); format: biochemical; conditions: 200 μM substrate BML-KI178, 3 h pre-incubation, read-out: HDAC8 IC50
Description: The histone deacetylase activities of HDAC1, HDAC2, HDAC3, HDAC6, and HDAC8 were measured in modified FLUOR DE LYS assays in 384-well format. In this assay, HDAC enzymes are initially incubated with an F-acetyl (or -trifluoroacetyl)-L-lysine-containing substrate with a C-terminal amide having aminomethylcoumarin as the amine component. HDACs cleave the F-acetyl group, rendering the resulting product susceptible to AMC cleavage by trypsin. The released AMC is then detected by its fluorescence. […] All steps were performed at room temperature (23° C.). The assay was performed by pre-incubating serial dilutions of test compounds with the target HDAC prior to initiation with substrate. […] Final conditions used for each assay were: 1. […] The reactions were stopped and developed by addition of 30 ul of HDAC developer solution containing a saturating level of HDAC inhibitor as follows: 1. […] For data analysis, background subtracted product (fluorescence) vs. time data for each inhibitor concentration was fitted using a 4-parameter fit.

[2] = biological target: T1, human HDAC3/SMRT heterodimer (Homo sapiens (Human), UniProt O15379); assay: biochemical
[3] = biological target: T2, human HDAC1 (Homo sapiens (Human), UniProt Q13547); assay: biochemical
[4] = biological target: T3, HDAC6 (Homo sapiens (Human), UniProt Q9UBN7); assay: biochemical
[5] = biological target: human HDAC2 (Homo sapiens (Human), UniProt Q92769); assay: HDAC2 inhibition assay (modified FLUOR DE LYS, 384-well); format: biochemical; conditions: 40 μM substrate BML-KI104, 3 h pre-incubation, read-out: HDAC2 IC50
[6] = system: KARN cells (Jurkat 2C4); conditions: luciferase induction, 2 μM SAHA = 100%
[7] = biological target: T3, HDAC6
[8] = biological target: T2, human HDAC1
[9] = biological target: T1, human HDAC3/SMRT heterodimer
[10] = system: KARN cells (Jurkat 2C4); assay: cells; conditions: Homo sapiens
[11] = read-out: Karn EC50 nM 0.1% NHS, 0.1% normal human serum
[12] = read-out: Karn EC50 nM 5% NHS, 5% normal human serum
[13] = read-out: Karn EC50 nM 0.1% NHS, 0.1% normal human serum, luciferase induction, 2 μM SAHA = 100%
[14] = read-out: Karn EC50 nM 5% NHS, 5% normal human serum, luciferase induction, 2 μM SAHA = 100%

T2 sequence (Q13547 whole entry): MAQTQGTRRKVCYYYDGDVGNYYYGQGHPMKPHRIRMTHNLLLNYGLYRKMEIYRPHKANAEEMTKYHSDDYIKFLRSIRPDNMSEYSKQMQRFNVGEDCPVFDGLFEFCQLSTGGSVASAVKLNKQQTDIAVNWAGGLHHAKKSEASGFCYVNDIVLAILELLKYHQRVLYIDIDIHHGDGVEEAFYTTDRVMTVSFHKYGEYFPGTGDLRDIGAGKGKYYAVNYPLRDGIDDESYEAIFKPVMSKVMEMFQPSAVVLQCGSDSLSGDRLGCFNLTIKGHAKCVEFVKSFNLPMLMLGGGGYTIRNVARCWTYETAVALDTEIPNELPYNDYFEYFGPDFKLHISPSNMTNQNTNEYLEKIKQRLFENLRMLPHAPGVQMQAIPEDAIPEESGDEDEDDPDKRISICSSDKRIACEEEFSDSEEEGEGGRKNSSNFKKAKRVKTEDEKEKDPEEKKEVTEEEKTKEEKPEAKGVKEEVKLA
T3 sequence (Q9UBN7 whole entry): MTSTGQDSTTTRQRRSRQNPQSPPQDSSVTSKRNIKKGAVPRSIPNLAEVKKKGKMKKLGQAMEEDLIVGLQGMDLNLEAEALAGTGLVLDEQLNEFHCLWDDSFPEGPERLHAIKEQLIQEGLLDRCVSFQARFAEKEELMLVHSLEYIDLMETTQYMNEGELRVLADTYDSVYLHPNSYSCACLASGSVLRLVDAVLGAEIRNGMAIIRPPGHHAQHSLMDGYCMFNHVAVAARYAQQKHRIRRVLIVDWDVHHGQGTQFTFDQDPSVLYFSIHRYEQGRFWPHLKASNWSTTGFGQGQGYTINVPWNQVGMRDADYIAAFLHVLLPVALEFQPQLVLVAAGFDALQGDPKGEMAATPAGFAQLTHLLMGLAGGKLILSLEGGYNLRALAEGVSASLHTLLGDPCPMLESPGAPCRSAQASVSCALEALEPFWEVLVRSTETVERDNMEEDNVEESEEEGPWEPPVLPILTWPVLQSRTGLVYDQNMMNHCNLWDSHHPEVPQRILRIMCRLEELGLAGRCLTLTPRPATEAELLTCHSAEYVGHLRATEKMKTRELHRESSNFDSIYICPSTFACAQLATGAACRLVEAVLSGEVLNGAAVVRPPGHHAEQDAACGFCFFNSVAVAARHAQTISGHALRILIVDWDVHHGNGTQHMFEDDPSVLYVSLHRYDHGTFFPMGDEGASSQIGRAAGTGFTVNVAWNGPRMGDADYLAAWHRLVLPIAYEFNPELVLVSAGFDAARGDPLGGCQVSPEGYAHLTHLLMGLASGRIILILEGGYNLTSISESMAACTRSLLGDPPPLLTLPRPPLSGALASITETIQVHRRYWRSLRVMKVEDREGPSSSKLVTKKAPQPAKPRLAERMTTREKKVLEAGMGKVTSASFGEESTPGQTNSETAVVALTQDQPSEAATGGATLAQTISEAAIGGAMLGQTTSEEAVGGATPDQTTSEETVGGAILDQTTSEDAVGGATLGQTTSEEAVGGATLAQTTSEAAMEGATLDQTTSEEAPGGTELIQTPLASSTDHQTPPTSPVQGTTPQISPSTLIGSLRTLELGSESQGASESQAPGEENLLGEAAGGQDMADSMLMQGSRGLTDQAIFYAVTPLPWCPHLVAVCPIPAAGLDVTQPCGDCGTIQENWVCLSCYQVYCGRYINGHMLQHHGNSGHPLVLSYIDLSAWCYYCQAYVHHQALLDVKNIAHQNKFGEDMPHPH
T1 sequence (O15379 whole entry): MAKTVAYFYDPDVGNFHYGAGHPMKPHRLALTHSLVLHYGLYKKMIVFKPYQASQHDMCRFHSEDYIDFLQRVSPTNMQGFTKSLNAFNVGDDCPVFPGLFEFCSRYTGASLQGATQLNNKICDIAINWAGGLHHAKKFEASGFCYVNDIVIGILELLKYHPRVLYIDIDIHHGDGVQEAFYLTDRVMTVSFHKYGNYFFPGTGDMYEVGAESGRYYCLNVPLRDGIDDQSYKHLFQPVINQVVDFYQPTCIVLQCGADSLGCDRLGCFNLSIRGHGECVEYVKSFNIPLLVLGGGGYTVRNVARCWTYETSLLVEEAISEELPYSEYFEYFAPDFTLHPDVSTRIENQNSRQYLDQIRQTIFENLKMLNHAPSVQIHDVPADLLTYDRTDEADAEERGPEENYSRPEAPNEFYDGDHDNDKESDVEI
T1 sequence (Q9Y618 1-899 partner): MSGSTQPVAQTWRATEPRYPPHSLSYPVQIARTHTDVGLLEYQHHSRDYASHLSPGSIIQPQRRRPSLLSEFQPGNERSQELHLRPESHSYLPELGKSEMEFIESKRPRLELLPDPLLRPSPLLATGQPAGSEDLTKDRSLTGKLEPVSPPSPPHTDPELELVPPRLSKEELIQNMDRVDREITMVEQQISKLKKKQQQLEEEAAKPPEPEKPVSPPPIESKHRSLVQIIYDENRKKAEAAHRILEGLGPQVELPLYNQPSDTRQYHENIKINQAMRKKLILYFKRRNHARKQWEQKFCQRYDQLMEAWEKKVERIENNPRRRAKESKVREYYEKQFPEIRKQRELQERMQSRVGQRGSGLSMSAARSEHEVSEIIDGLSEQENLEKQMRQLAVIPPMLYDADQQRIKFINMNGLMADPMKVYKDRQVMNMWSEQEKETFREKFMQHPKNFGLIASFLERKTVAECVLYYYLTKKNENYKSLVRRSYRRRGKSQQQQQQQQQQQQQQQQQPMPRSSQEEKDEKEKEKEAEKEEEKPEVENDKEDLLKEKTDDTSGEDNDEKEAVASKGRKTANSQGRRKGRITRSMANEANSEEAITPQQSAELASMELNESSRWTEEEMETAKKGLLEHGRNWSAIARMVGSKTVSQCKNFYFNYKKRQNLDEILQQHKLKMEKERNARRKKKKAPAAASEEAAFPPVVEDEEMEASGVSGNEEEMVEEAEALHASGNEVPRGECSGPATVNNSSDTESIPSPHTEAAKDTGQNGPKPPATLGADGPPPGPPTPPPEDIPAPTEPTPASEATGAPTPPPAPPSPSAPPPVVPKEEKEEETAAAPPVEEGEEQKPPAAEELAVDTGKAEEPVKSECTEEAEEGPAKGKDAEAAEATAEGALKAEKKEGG
human HDAC8, sequence (Q9BY41 whole entry): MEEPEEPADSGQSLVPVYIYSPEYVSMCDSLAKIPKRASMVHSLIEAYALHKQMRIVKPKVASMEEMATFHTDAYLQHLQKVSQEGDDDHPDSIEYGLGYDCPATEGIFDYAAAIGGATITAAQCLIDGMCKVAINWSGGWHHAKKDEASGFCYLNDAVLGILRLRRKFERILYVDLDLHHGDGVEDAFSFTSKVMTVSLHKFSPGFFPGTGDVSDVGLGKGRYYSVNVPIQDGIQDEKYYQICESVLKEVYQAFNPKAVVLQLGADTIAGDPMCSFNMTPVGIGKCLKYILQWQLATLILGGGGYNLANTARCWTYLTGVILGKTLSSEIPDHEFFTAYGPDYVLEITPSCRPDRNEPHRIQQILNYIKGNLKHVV
human HDAC2, sequence (Q92769 whole entry): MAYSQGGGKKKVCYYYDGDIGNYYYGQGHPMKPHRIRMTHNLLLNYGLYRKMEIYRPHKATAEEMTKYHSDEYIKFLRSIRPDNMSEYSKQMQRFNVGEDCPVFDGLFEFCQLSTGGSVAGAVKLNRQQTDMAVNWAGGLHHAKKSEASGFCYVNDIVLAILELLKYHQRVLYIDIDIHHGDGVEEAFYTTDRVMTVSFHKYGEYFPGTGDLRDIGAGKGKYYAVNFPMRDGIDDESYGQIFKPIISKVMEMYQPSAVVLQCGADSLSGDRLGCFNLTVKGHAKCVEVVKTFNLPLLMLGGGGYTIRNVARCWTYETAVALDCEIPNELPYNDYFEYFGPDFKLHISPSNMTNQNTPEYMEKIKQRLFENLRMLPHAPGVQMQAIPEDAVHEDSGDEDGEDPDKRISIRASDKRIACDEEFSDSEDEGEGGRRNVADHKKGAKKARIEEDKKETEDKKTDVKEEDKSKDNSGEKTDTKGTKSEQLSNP

Row | Compound | IC50 ([1]; […] nM enzyme) | IC50 [2] | IC50 [3] | IC50 [4] | IC50 ([5]; […] nM enzyme) | EC50 [6, 11] | EC50 [6, 12] | IC50 ([1]; […] enzyme) | IC50 [7] | IC50 [8] | IC50 ([5]; […] enzyme) | IC50 [9] | EC50 [10, 13] | EC50 [10, 14] | EC50 ([10]; read-out: Karn EC50 nM 0.1% NHS) | EC50 ([10]; read-out: Karn EC50 nM 5% NHS)
1 | Cc1ccc2cc(-c3cnc([C@H](CCCCCC(=O)c4ncco4)NC(=O)[C@H]4CC45CCN(C)CC5)o3)ccc2n1 [Example 109, (S)-6-methyl-N-((S)-1-(5-(2-methylquinolin-6-yl)oxazol-2-yl)-7-(oxazol-2-yl)-7-oxoheptyl)-6-azaspiro[2.5]octane-1-carboxamide] | 5000 nM | 7.5 nM | 7.5 nM | 23000 nM | 39 nM | 1700 nM | 2500 nM |  |  |  |  |  |  |  |  | 
2 | Cc1ccc2cc(-c3cnc(C(CCCCCC(=O)c4ncco4)NC(=O)[C@H]4CC45CCN(C)CC5)o3)ccc2n1 (stereo partly drawn) [Example 111, (1S)-6-methyl-N-(1-(5-(2-methylquinolin-6-yl)oxazol-2-yl)-7-(oxazol-2-yl)-7-oxoheptyl)-6-azaspiro[2.5]octane-1-carboxamide] |  |  |  |  |  | 70 nM | 48 nM | 520 nM | 430 nM | 0.76 nM | 5.2 nM | 1.4 nM |  |  |  | 
3 | COc1cc2nc(C)ccc2cc1-c1cnc([C@H](CCCCCC(=O)c2ncco2)NC(=O)C2COCCO2)[nH]1 (stereo partly drawn) [Example 174, N-[(1S)-1-[5-(7-methoxy-2-methylquinolin-6-yl)-1H-imidazol-2-yl]-7-(1,3-oxazol-2-yl)-7-oxoheptyl]-1,4-dioxane-2-carboxamide] |  |  |  |  |  | 37 nM | 80 nM | 110 nM | > 900 nM | 1.4 nM | 3.7 nM | 0.54 nM |  |  |  | 
4 | COc1cc2nc(C)ccc2cc1-c1cnc([C@H](CCCCCC(=O)c2ncco2)NC2CC(OC)C2)[nH]1 (stereo partly drawn) [Example 84, (S)-7-(5-(7-methoxy-2-methylquinolin-6-yl)-1H-imidazol-2-yl)-7-((3-methoxycyclobutyl)amino)-1-(oxazol-2-yl)heptan-1-one] | 3100 nM | 7.9 nM | 4 nM | 13000 nM | 22 nM |  |  |  |  |  |  |  | 490 nM | 540 nM |  | 
5 | N#Cc1nc(-c2ccc(F)cc2)oc1[C@@H](N)CCCCCC(=O)c1ncco1 [Example 189, (S)-5-(1-amino-7-(oxazol-2-yl)-7-oxoheptyl)-2-(4-fluorophenyl)oxazole-4-carbonitrile] | 25000 nM | 45 nM | 26 nM | ≥ 45000 nM | 250 nM |  |  |  |  |  |  |  | 3000 nM | 7400 nM |  | 
6 | COc1cc2nc(C)ccc2cc1-c1cnc([C@H](CCCCCC(=O)c2ncco2)NC(=O)C2CN(C)C2)o1 [Example 100, (S)-N-(1-(5-(7-methoxy-2-methylquinolin-6-yl)oxazol-2-yl)-7-(oxazol-2-yl)-7-oxoheptyl)-1-methylazetidine-3-carboxamide] | 130 nM | 0.28 nM | 0.45 nM | 620 nM | 1.3 nM |  |  |  |  |  |  |  |  |  | 19 nM | 21 nM
7 | O=C1CC[C@@](CCCCCC(=O)c2ccon2)(c2nc(-c3ccc(-c4ncco4)cc3F)c[nH]2)N1 [Example 67, (S)-5-(4-(2-fluoro-4-(oxazol-2-yl)phenyl)-1H-imidazol-2-yl)-5-(6-(isoxazol-3-yl)-6-oxohexyl)pyrrolidin-2-one] | 400 nM | 1.5 nM | 1.8 nM | ≥ 45000 nM | 4.3 nM |  |  |  |  |  |  |  | 51 nM | 95 nM |  | 

— patent publication US12331044B2, “Inhibitors of histone deacetylase useful for the treatment or prevention of HIV infection” (Merck Sharp & Dohme LLC, priority 2018, dated 2025)
